Key:
[1] = Stability test in case of including UV shielding agent of inorganic powder (sun-screen cream); format: physicochemical; conditions: sun-screen cream with inorganic powder, 10.0 wt % ultraviolet absorbent; 2 months at 50° C.; visual observation
Procedure: The sun screen cream of the following formulation was manufactured. These were preserved for 2 months at 50° C. By visual observation of discoloration, the inventors have checked stability when using an UV shielding agent of inorganic powder which is included as external skin preparation for the ultraviolet rays defense.
After (2) was added to (1) and was swelled sufficiently, (3) to (11) was added thereto and was mixed with heating. The mixture was sufficiently dissolved with dispersing. This dispersed liquid was kept at 70° C. After this dispersed liquid was emulsified homogeneously by homomixer with adding a mixture of (12) to (15) gradually, which was cooled to 30° C. with stirring well to obtain sun screen.

[2] = Perfume stabilization effect (photostabilizer, sunlight exposure, judgement by perfumier); design: key to Sunlight exposure (80 MJ) Smell evaluation / Sunlight exposure (80 MJ) evaluation: A: No change; B: No almost change; C: Yes change
Procedure: Next, the photostabilization effect for each perfume was studied by the following evaluation formulation.
Each test sample was prepared. Change of smell of sample exposed to sunlight (80 MJ) was observed (judgement by perfumier).

Structure (SMILES): Oc1nncc(N2CCOCC2)c1N1CCOCC1 [4,5-Dimorpholino-3-hydroxypyridazine]
- Discoloration [1]: No
- Sunlight exposure (80 MJ) Smell evaluation ([2]; Base perfume Aldehyde 0.03 wt %, photostabilizer 0.2 wt %): A
- Sunlight exposure (80 MJ) Smell evaluation ([2]; Base perfume Animal 0.03 wt %, photostabilizer 0.3 wt %): A
- Sunlight exposure (80 MJ) Smell evaluation ([2]; Base perfume Chypre 0.03 wt %, photostabilizer 0.01 wt %): A
- Sunlight exposure (80 MJ) Smell evaluation ([2]; Base perfume Citrus 0.03 wt %, photostabilizer 0.03 wt %): A
- Sunlight exposure (80 MJ) Smell evaluation ([2]; Base perfume Fougere 0.03 wt %, photostabilizer 0.1 wt %): A
- Sunlight exposure (80 MJ) Smell evaluation ([2]; Base perfume Fruity 0.03 wt %, photostabilizer 0.1 wt %): A
- Sunlight exposure (80 MJ) Smell evaluation ([2]; Base perfume Green 0.03 wt %, photostabilizer 0.05 wt %): A
- Sunlight exposure (80 MJ) Smell evaluation ([2]; Base perfume Jasmine 0.03 wt %, photostabilizer 0.01 wt %): A
- Sunlight exposure (80 MJ) Smell evaluation ([2]; Base perfume Muguet 0.03 wt %, photostabilizer 0.05 wt %): A
- Sunlight exposure (80 MJ) Smell evaluation ([2]; Base perfume Oriental 0.03 wt %, photostabilizer 0.1 wt %): A
- Sunlight exposure (80 MJ) Smell evaluation ([2]; Base perfume Rose 0.03 wt %, photostabilizer 0.05 wt %): A
- Sunlight exposure (80 MJ) Smell evaluation ([2]; Base perfume Spicy 0.03 wt %, photostabilizer 0.2 wt %): A
- Sunlight exposure (80 MJ) Smell evaluation ([2]; Base perfume Woody 0.03 wt %, photostabilizer 0.1 wt %): A
- Sunlight exposure (80 MJ) Smell evaluation ([2]; Natural perfume Jasmine oil 0.03 wt %, photostabilizer 0.05 wt %): A
- Sunlight exposure (80 MJ) Smell evaluation ([2]; Natural perfume Lavender oil 0.03 wt %, photostabilizer 0.1 wt %): A
- Sunlight exposure (80 MJ) Smell evaluation ([2]; Natural perfume Neroli oil 0.03 wt %, photostabilizer 0.1 wt %): A
- Sunlight exposure (80 MJ) Smell evaluation ([2]; Natural perfume Rose oil 0.03 wt %, photostabilizer 0.05 wt %): A
- Sunlight exposure (80 MJ) Smell evaluation ([2]; Natural perfume Ylang ylang oil 0.03 wt %, photostabilizer 0.2 wt %): A
- Sunlight exposure (80 MJ) Smell evaluation ([2]; Synthetic perfume Citral 0.03 wt %, photostabilizer 0.1 wt %): A
- Sunlight exposure (80 MJ) Smell evaluation ([2]; Synthetic perfume Limonene 0.03 wt %, photostabilizer 0.05 wt %): A
- Sunlight exposure (80 MJ) Smell evaluation ([2]; Synthetic perfume Linalool 0.03 wt %, photostabilizer 0.05 wt %): A
- Sunlight exposure (80 MJ) Smell evaluation ([2]; Synthetic perfume Linalyl acetate 0.03 wt %, photostabilizer 0.1 wt %): A
- Sunlight exposure (80 MJ) Smell evaluation ([2]; Synthetic perfume Rose oxide 0.03 wt %, photostabilizer 0.2 wt %): A
- change of smell ([2]; base perfume, summary of Table 19): very small in comparison with other photostabilizers
- Sunlight exposure (80 MJ) evaluation ([2]; natural perfume Ambergris oil, photostabilizer amount 0.3 wt %): A
- Sunlight exposure (80 MJ) evaluation ([2]; natural perfume Bergamot oil, photostabilizer amount 0.1 wt %): A
- Sunlight exposure (80 MJ) evaluation ([2]; natural perfume Castoreum oil, photostabilizer amount 0.3 wt %): A
- Sunlight exposure (80 MJ) evaluation ([2]; natural perfume Cinnamon oil, photostabilizer amount 0.01 wt %): A
- Sunlight exposure (80 MJ) evaluation ([2]; natural perfume Civet oil, photostabilizer amount 0.2 wt %): A
- Sunlight exposure (80 MJ) evaluation ([2]; natural perfume Clary sage oil, photostabilizer amount 0.03 wt %): A
- Sunlight exposure (80 MJ) evaluation ([2]; natural perfume Cloves oil, photostabilizer amount 0.03 wt %): A
- Sunlight exposure (80 MJ) evaluation ([2]; natural perfume Coriander oil, photostabilizer amount 0.01 wt %): A
- Sunlight exposure (80 MJ) evaluation ([2]; natural perfume Geranium oil, photostabilizer amount 0.03 wt %): A
- Sunlight exposure (80 MJ) evaluation ([2]; natural perfume Lemon oil, photostabilizer amount 0.001 wt %): A
- Sunlight exposure (80 MJ) evaluation ([2]; natural perfume Moss oil, photostabilizer amount 0.2 wt %): A
- Sunlight exposure (80 MJ) evaluation ([2]; natural perfume Nutmeg oil, photostabilizer amount 0.01 wt %): A
- Sunlight exposure (80 MJ) evaluation ([2]; natural perfume Oakmoss oil, photostabilizer amount 0.2 wt %): A
- Sunlight exposure (80 MJ) evaluation ([2]; natural perfume Opopanax oil, photostabilizer amount 0.1 wt %): A
- Sunlight exposure (80 MJ) evaluation ([2]; natural perfume Orange oil, photostabilizer amount 0.1 wt %): A
- Sunlight exposure (80 MJ) evaluation ([2]; natural perfume Orris oil, photostabilizer amount 0.2 wt %): A
- Sunlight exposure (80 MJ) evaluation ([2]; natural perfume Patchouli oil, photostabilizer amount 0.01 wt %): A
- Sunlight exposure (80 MJ) evaluation ([2]; natural perfume Pepper oil, photostabilizer amount 0.001 wt %): A
- Sunlight exposure (80 MJ) evaluation ([2]; natural perfume Peppermint oil, photostabilizer amount 0.03 wt %): A
- Sunlight exposure (80 MJ) evaluation ([2]; natural perfume Sandals wood oil, photostabilizer amount 0.01 wt %): A
- Sunlight exposure (80 MJ) evaluation ([2]; natural perfume Tuberose oil, photostabilizer amount 0.03 wt %): A
- Sunlight exposure (80 MJ) evaluation ([2]; natural perfume Vetiver oil, photostabilizer amount 0.2 wt %): A
- change of smell ([2]; natural perfume, summary of Table 17): very small in comparison with other photostabilizers
- Sunlight exposure (80 MJ) Smell evaluation ([2]; synthetic perfume 2,6-Nonadienal, photostabilizer amount 0.03 wt %): A
- Sunlight exposure (80 MJ) Smell evaluation ([2]; synthetic perfume Benzyl benzoate, photostabilizer amount 0.1 wt %): A
- Sunlight exposure (80 MJ) Smell evaluation ([2]; synthetic perfume Cyclopentadecanone, photostabilizer amount 0.05 wt %): A
- Sunlight exposure (80 MJ) Smell evaluation ([2]; synthetic perfume Eugenol, photostabilizer amount 0.1 wt %): A
- Sunlight exposure (80 MJ) Smell evaluation ([2]; synthetic perfume Farnesol, photostabilizer amount 0.01 wt %): A
- Sunlight exposure (80 MJ) Smell evaluation ([2]; synthetic perfume I-Carvone, photostabilizer amount 0.05 wt %): A
- Sunlight exposure (80 MJ) Smell evaluation ([2]; synthetic perfume Indole, photostabilizer amount 0.2 wt %): A
- Sunlight exposure (80 MJ) Smell evaluation ([2]; synthetic perfume Lilial, photostabilizer amount 0.3 wt %): A
- Sunlight exposure (80 MJ) Smell evaluation ([2]; synthetic perfume Lyral, photostabilizer amount 0.3 wt %): A
- Sunlight exposure (80 MJ) Smell evaluation ([2]; synthetic perfume Phenylacetaldehyde dimethyl acetal, photostabilizer amount 0.2 wt %): A
- Sunlight exposure (80 MJ) Smell evaluation ([2]; synthetic perfume cis-3-Hexenol, photostabilizer amount 0.01 wt %): A
- Sunlight exposure (80 MJ) Smell evaluation ([2]; synthetic perfume α-Hexyl cinnamic aldehyde, photostabilizer amount 0.03 wt %): A
- Sunlight exposure (80 MJ) Smell evaluation ([2]; synthetic perfume β-Caryophyllene, photostabilizer amount 0.01 wt %): A
- Sunlight exposure (80 MJ) Smell evaluation ([2]; synthetic perfume β-Ionone, photostabilizer amount 0.05 wt %): A
- Sunlight exposure (80 MJ) Smell evaluation ([2]; synthetic perfume β-Phenylethyl alcohol, photostabilizer amount 0.03 wt %): A
- Sunlight exposure (80 MJ) Smell evaluation ([2]; synthetic perfume γ-Undecalactone, photostabilizer amount 0.1 wt %): A
- change of smell ([2]; synthetic perfume, summary of Table 18): very small in comparison with other photostabilizers

From US6395896B2, “Pyridazine derivatives, manufacturing method and related composition” (Shiseido Co., Ltd., priority 1999, dated 2002)
